{"source": "patent US20090156666A1", "about": "“NOVEL COMPOSITIONS AND USE THEREOF FOR THE TREATMENT, CO-TREATMENT OR PREVENTION OF INFLAMMATORY DISORDERS” (priority 2007, published 2009)", "key": {"[1]": {"system": "nitric oxide (NO) synthesis in RAW264.7 cells", "assay": "Inhibition of nitric oxide synthesis in LPS-stimulated RAW264.7 macrophages (Griess reaction)", "type": "cell-based, murine", "details": "single substances"}, "human aggrecan": {"system": "human aggrecan", "assay": "Gene expression (mRNA, RT-PCR) in normal human chondrocytes: aggrecan", "type": "cell-based", "details": "50 μmol/L; 4 hrs; % of unstimulated cells (100%)", "protocol": "(§1) The effect of a MA/HO (1:3 w/w) mixture in combination with glucosamine was tested on the expression of human aggrecan, collagen I, collagen II, or chondrocyte transcription factors (SOX-6, -9) in vitro in normal human chondrocytes (derived from knee) (CC-2550; Cambrex, respectively). A control experiment without the compounds was done concomitantly to compare the expression of these genes (percentage expression of gene in controls was set to 100%). […] The level of mRNA was determined by RT-PCR (Richard et al. Mol. Nutr. Food Res. 49, 431-442, 2005) and expressed relative to the level observed in cells cultured without the substances. The given values indicate the level of gene expression (in % of unstimulated cells [set at 100%] for anabolic and anti-catabolic genes; in % of IL1β-treated cells [set at 100%], for catabolic genes). […] Yet, when combined the observed increase in gene expression exceeded the expected one reflecting synergism."}, "collagen I": {"system": "collagen I", "assay": "Gene expression (mRNA, RT-PCR) in normal human chondrocytes: collagen I", "type": "cell-based", "details": "50 μmol/L; 4 hrs; % of unstimulated cells (100%)", "protocol": "as §1"}, "collagen II": {"system": "collagen II", "assay": "Gene expression (mRNA, RT-PCR) in normal human chondrocytes: collagen II", "type": "cell-based", "details": "50 μmol/L; 4 hrs; % of unstimulated cells (100%)", "protocol": "as §1"}, "TMP-I": {"system": "TMP-I", "assay": "Gene expression (mRNA, RT-PCR) in normal human chondrocytes: TMP-I (anti-catabolic)", "type": "cell-based", "details": "50 μmol/L; 4 hrs; % of unstimulated cells (100%)", "excerpt": "as §1, with “Catabolic events are controlled by the expression of genes, e.g. those genes that encode matrix metalloproteinases (MMPs) that eventually break down collagen or proteoglycans (ADAMTS-4, -5). Of the MMPs, MMP-1 and MMP-3 have a major role in breaking down the ECM in cartilage degradation. Some genes including TIMPS-1 (tissue-inhibitor of MMPs) have anti-catabolic effects and thus contribute to prevention of tissue erosion. The effect” for “The effect”"}, "MMP-9": {"system": "MMP-9", "assay": "Gene expression (mRNA, RT-PCR) in normal human chondrocytes: MMP-9 (catabolic)", "type": "cell-based", "details": "50 μmol/L; stim. 4 hrs; % of IL1β-treated cells (100%)", "excerpt": "as §1, with “Catabolic events are controlled by the expression of genes, e.g. those genes that encode matrix metalloproteinases (MMPs) that eventually break down collagen or proteoglycans (ADAMTS-4, -5). Of the MMPs, MMP-1 and MMP-3 have a major role in breaking down the ECM in cartilage degradation. Some genes including TIMPS-1 (tissue-inhibitor of MMPs) have anti-catabolic effects and thus contribute to prevention of tissue erosion. The effect” for “The effect”"}, "ADAMTS-4": {"system": "ADAMTS-4", "assay": "Gene expression (mRNA, RT-PCR) in normal human chondrocytes: ADAMTS-4 (catabolic)", "type": "cell-based", "details": "50 μmol/L; unstim. 4 d; % of control (100%)", "excerpt": "Catabolic events are controlled by the expression of genes, e.g. those genes that encode matrix metalloproteinases (MMPs) that eventually break down collagen or proteoglycans (ADAMTS-4, -5). Of the MMPs, MMP-1 and MMP-3 have a major role in breaking down the ECM in cartilage degradation. Some genes including TIMPS-1 (tissue-inhibitor of MMPs) have anti-catabolic effects and thus contribute to prevention of tissue erosion. The effect of a MA/HO (1:3 w/w) mixture in combination with glucosamine was tested on the expression of human aggrecan, collagen I, collagen II, or chondrocyte transcription factors (SOX-6, -9) in vitro in normal human chondrocytes (derived from knee) (CC-2550; Cambrex, respectively). A control experiment without the compounds was done concomitantly to compare the expression of these genes (percentage expression of gene in controls was set to 100%). […] The level of mRNA was determined by RT-PCR (Richard et al. Mol. Nutr. Food Res. 49, 431-442, 2005) and expressed relative to the level observed in cells cultured without the substances. […] […] Yet, when combined the observed increase in gene expression exceeded the expected one reflecting synergism."}}, "data": [{"smiles": "N[C@H]1C(O)O[C@H](CO)[C@@H](O)[C@@H]1O.O=S(=O)(O)O", "note": "(some centres unmarked) [Glucosamine sulfate, glucosamine sulfate]", "values": [{"measurement": "anti-inflammatory activity (in words)", "setting": "[1]; LPS-stimulated, nitric oxide", "result": "marginal anti-inflammatory"}, {"measurement": "IC50", "setting": "[1]; Mus musculus, LPS 1 μg/ml, 24 hours", "result": "> 100", "unit": "µM"}, {"measurement": "Aggrecan gene expression level", "setting": "human aggrecan", "result": 81, "unit": "%"}, {"measurement": "Collagen 1 gene expression level", "setting": "collagen I", "result": 121, "unit": "%"}, {"measurement": "Collagen II gene expression level", "setting": "collagen II", "result": 154, "unit": "%"}, {"measurement": "TMP-I gene expression level", "setting": "TMP-I", "result": 110, "unit": "%"}, {"measurement": "MMP-9 gene expression level", "setting": "MMP-9", "result": 114, "unit": "%"}, {"measurement": "ADAMTS-4 gene expression level", "setting": "ADAMTS-4", "result": 101, "unit": "%"}]}]}
